target: T1, human Werner helicase (Uniprot Q14191, amino acids 517-1235 with L1074F point mutation), WRN-BV08 (Homo sapiens, UniProt Q14191, L1074F); assay: WRN (BV08) ADP-Glo Assay; format: biochemical
T1 construct: Uniprot Q14191, amino acids 517-1235 with L1074F point mutation; TEV cleavable 8xHis tag (C, cleaved yes); made in house; host or cells: Sf9 insect cells (baculovirus, pFastBac)
Method: DNA duplex was synthesized at BGI (Shenzhen, China) and was composed of strand 1 with the sequence 5′-[…]-3′ (SEQ ID NO.: 1) and strand 2 with the sequence 5′-[…]-3′ (SEQ ID NO.: 2). DNA strands were annealed by heating to 95 °C for 5 minutes followed by slow cooling to room temperature. […] DMSO (0.1 μl) was added to columns 12, rows A-H and column 24, rows I-P for the maximum signal control.
Where RLU=relative luminescence units, sample=signal in sample well, and MIN and MAX are the respective minimum and maximum signal controls. • Four-parameter IC50 fit equation:
Y=Bottom+(Top−Bottom)/(1+(IC50/X)^Hill Slope)
Where top and bottom are normally allowed to float but may be fixed at 100 or 0 respectively in a 3-parameter fit. Y is the % inhibition and X is the compound concentration.
Molecular Biology and virus production. […] The baculovirus from the expression plasmid WRN-BV08 was generated from transfection and amplification following the manufacturer's instructions.
Sf9 cells grown in SF900II media were infected with 1:200 WRN-BV08 P2 virus and incubated for protein expression for 72 h at 27 °C. The WRN protein was purified using the following protocol. The cell pellets were thawed and resuspended in buffer A (50 mM Tris, pH 7.5, 500 mM NaCl, 1 mM TCEP, 10% Glycerol) supplemented with 0.5% CHAPS, 1 mM [COMPOUND LEFT OUT], 1 μg/ml Leupeptin, 1 μg/ml Pepstatin, and the Pierce Universal Nuclease and cocktail tablet. Cleared lysates were loaded onto a Ni Sepharose™ excel column and washed with buffer A and bound protein was eluted with buffer A supplemented with 300 mM imidazole. The eluted protein was dialyzed against buffer A and digested by His-tagged TEV (1:5 ratio) overnight at 4 °C. […] Untagged WRN protein was eluted from the column with buffer A supplemented with 20 mM imidazole, dialyzed overnight into buffer B (50 mM Tris, pH 7.5, 1 mM TCEP, 10% Glycerol) supplemented with 150 mM NaCl and loaded onto a Heparin column. Proteins were eluted with a step gradient of buffer B supplemented with 150 mM, 200 mM, 300 mM and 500 mM NaCl.

T1 sequence (Q14191 517-1235 L1074F): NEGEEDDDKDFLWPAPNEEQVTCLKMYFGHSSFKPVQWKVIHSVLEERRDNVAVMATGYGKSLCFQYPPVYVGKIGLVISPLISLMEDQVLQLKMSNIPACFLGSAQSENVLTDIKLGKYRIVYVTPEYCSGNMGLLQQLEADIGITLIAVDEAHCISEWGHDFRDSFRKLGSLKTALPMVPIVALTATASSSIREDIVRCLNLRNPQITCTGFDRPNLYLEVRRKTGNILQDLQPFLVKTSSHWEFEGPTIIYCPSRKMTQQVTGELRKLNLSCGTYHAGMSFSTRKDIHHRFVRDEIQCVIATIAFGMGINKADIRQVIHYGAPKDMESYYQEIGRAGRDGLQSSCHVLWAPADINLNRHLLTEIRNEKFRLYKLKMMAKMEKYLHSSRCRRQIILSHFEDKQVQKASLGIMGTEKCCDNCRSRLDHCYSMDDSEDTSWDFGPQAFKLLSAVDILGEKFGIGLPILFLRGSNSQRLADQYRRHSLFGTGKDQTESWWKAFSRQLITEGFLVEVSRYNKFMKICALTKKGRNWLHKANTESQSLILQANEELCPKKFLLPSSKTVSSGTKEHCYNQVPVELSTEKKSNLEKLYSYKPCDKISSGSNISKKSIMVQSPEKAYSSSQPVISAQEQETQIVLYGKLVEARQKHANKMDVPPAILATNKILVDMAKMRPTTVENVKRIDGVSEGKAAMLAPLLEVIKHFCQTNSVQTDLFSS

First: CCc1c(N2CCN(C(=O)c3c(C)cnc(C)c3O)CC2)c(=O)n2nc(C3=CCOCC3)nc2n1CC(=O)Nc1ccc(C(F)(F)F)cc1Cl [Compound I-13, N-[2-chloro-4-(trifluoromethyl)phenyl]-2-[2-(3,6-dihydro-2H-pyran-4-yl)-5-ethyl-6-[4-(3-hydroxy-2,5-dimethylpyridine-4-carbonyl)piperazin-1-yl]-7-oxo-4H,7H-[1,2,4]triazolo[1,5-a]pyrimidin-4-yl]acetamide]
Second: CCc1c(N2CCN(C(=O)c3c(O)noc3C)CC2)c(=O)n2nc(C3=CCOCC3)nc2n1CC(=O)Nc1ccc(C(F)(F)F)cc1Cl [Compound I-28, N-[2-chloro-4-(trifluoromethyl)phenyl]-2-[2-(3,6-dihydro-2H-pyran-4-yl)-5-ethyl-6-[4-(3-hydroxy-5-methyl-1,2-oxazole-4-carbonyl)piperazin-1-yl]-7-oxo-4H,7H-[1,2,4]triazolo[1,5-a]pyrimidin-4-yl]acetamide]
The IC50 of the first is higher: 5 to 50 nM for the first, < 5 nM for the second. The second is the more potent here.

Compared with CCc1c(N2CCN(C(=O)c3cnn(C)c3)CC2)c(=O)n2nc(-c3nccc(OC)n3)nc2n1CC(=O)Nc1ccc(C(F)(F)F)cc1Cl [Compound I-70, N-[2-chloro-4-(trifluoromethyl)phenyl]-2-[5-ethyl-2-(4-methoxypyrimidin-2-yl)-6-[4-(1-methyl-1H-pyrazole-4-carbonyl)piperazin-1-yl]-7-oxo-4H,7H-[1,2,4]triazolo[1,5-a]pyrimidin-4-yl]acetamide], CCc1c(N2CCN(C(=O)c3cnn(C)c3)CC2)c(=O)n2nc(-c3ccnc(OC)n3)nc2n1CC(=O)Nc1ccc(C(F)(F)F)cc1Cl [Compound I-64, N-[2-chloro-4-(trifluoromethyl)phenyl]-2-[5-ethyl-2-(2-methoxypyrimidin-4-yl)-6-[4-(1-methyl-1H-pyrazole-4-carbonyl)piperazin-1-yl]-7-oxo-4H,7H-[1,2,4]triazolo[1,5-a]pyrimidin-4-yl]acetamide] is lower in IC50: 100 to 500 nM for the first, 5 to 50 nM for the second.

CCc1c(N2CCN(C(=O)C(F)F)CC2)c(=O)n2nc(-c3ccnc(OC)c3)nc2n1CC(=O)Nc1ccc(C(F)(F)F)cc1Cl [Compound I-53, N-[2-chloro-4-(trifluoromethyl)phenyl]-2-{6-[4-(2,2-difluoroacetyl)piperazin-1-yl]-5-ethyl-2-(2-methoxypyridin-4-yl)-7-oxo-4H,7H-[1,2,4]triazolo[1,5-a]pyrimidin-4-yl}acetamide] and CCc1c(N2CCN(C(=O)c3noc(C)n3)CC2)c(=O)n2nc(-c3ccnc(OC)c3)nc2n1CC(=O)Nc1ccc(C(F)(F)F)cc1Cl [Compound I-78, N-[2-chloro-4-(trifluoromethyl)phenyl]-2-[5-ethyl-2-(2-methoxypyridin-4-yl)-6-[4-(5-methyl-1,2,4-oxadiazole-3-carbonyl)piperazin-1-yl]-7-oxo-4H,7H-[1,2,4]triazolo[1,5-a]pyrimidin-4-yl]acetamide] fall in the same range of IC50: 5 to 50 nM for the first, 5 to 50 nM for the second.

Compared with CCc1c(N2CCN(C(=O)c3cn(C)[nH]c3=O)CC2)c(=O)n2nc(C3=CCOCC3)nc2n1CC(=O)Nc1ccc(C(F)(F)F)cc1Cl [Compound I-11, N-[2-chloro-4-(trifluoromethyl)phenyl]-2-[2-(3,6-dihydro-2H-pyran-4-yl)-5-ethyl-6-[4-(3-hydroxy-1-methyl-1H-pyrazole-4-carbonyl)piperazin-1-yl]-7-oxo-4H,7H-[1,2,4]triazolo[1,5-a]pyrimidin-4-yl]acetamide], CCc1c(N2CCN(C(=O)c3ccn(C)n3)CC2)c(=O)n2nc(C3=CCOCC3)nc2n1CC(=O)Nc1ccc(C(F)(F)F)cc1Cl [Compound I-30, N-[2-chloro-4-(trifluoromethyl)phenyl]-2-[2-(3,6-dihydro-2H-pyran-4-yl)-5-ethyl-6-[4-(1-methyl-1H-pyrazole-3-carbonyl)piperazin-1-yl]-7-oxo-4H,7H-[1,2,4]triazolo[1,5-a]pyrimidin-4-yl]acetamide] is higher in IC50: < 5 nM for the first, 5 to 50 nM for the second. The first is the more potent here.

CCc1c(N2CCN(C(=O)c3c(O)cccc3OC)CC2)c(=O)n2nc(C3=CCOCC3)nc2n1CC(=O)Nc1ccc(C(F)(F)F)cc1Cl [Compound I-4, N-[2-chloro-4-(trifluoromethyl)phenyl]-2-[2-(3,6-dihydro-2H-pyran-4-yl)-5-ethyl-6-[4-(2-hydroxy-6-methoxybenzoyl)piperazin-1-yl]-7-oxo-4H,7H-[1,2,4]triazolo[1,5-a]pyrimidin-4-yl]acetamide] and CCc1c(N2CCN(C(=O)c3sccc3O)CC2)c(=O)n2nc(C3=CCOCC3)nc2n1CC(=O)Nc1ccc(C(F)(F)F)cc1Cl [Compound I-6, N-[2-chloro-4-(trifluoromethyl)phenyl]-2-[2-(3,6-dihydro-2H-pyran-4-yl)-5-ethyl-6-[4-(3-hydroxythiophene-2-carbonyl)piperazin-1-yl]-7-oxo-4H,7H-[1,2,4]triazolo[1,5-a]pyrimidin-4-yl]acetamide] fall in the same range of IC50: 5 to 50 nM for the first, 5 to 50 nM for the second.

CCc1c(N2CCN(C(=O)c3cnn(C)c3)[C@H](C)C2)c(=O)n2nc(-c3ccnc(OC)c3)nc2n1CC(=O)Nc1ccc(C(F)(F)F)cc1Cl [Compound I-77, N-[2-chloro-4-(trifluoromethyl)phenyl]-2-[5-ethyl-2-(2-methoxypyridin-4-yl)-6-[(3R)-3-methyl-4-(1-methyl-1H-pyrazole-4-carbonyl)piperazin-1-yl]-7-oxo-4H,7H-[1,2,4]triazolo[1,5-a]pyrimidin-4-yl]acetamide] and CCc1c(N2CCN(C(=O)c3cnn(C)c3)CC2)c(=O)n2nc(-c3ccnc(OC4CC4)c3)nc2n1CC(=O)Nc1ccc(C(F)(F)F)cc1Cl [Compound I-52, N-[2-chloro-4-(trifluoromethyl)phenyl]-2-[2-(2-cyclopropoxypyridin-4-yl)-5-ethyl-6-[4-(1-methyl-1H-pyrazole-4-carbonyl)piperazin-1-yl]-7-oxo-4H,7H-[1,2,4]triazolo[1,5-a]pyrimidin-4-yl]acetamide] fall in the same range of IC50: 5 to 50 nM for the first, 5 to 50 nM for the second.

Compared with CCc1c(N2CCN(C(=O)c3ncc4c(c3O)OCC4)CC2)c(=O)n2nc(-c3ccnc(OC)c3)nc2n1CC(=O)Nc1ccc(C(F)(F)F)cc1Cl [Compound I-86, N-[2-chloro-4-(trifluoromethyl)phenyl]-2-[5-ethyl-6-(4-{7-hydroxy-2H,3H-furo[3,2-c]pyridine-6-carbonyl}piperazin-1-yl)-2-(2-methoxypyridin-4-yl)-7-oxo-4H,7H-[1,2,4]triazolo[1,5-a]pyrimidin-4-yl]acetamide], CCc1c(N2CCN(C(=O)c3ncc4c(c3O)OCC4)CC2)c(=O)n2nc(C3=CCOCC3)nc2n1CC(=O)Nc1ccc(C(F)(F)F)cc1Cl [Compound I-83, N-[2-chloro-4-(trifluoromethyl)phenyl]-2-[2-(3,6-dihydro-2H-pyran-4-yl)-5-ethyl-6-(4-{7-hydroxy-2H,3H-furo[3,2-c]pyridine-6-carbonyl}piperazin-1-yl)-7-oxo-4H,7H-[1,2,4]triazolo[1,5-a]pyrimidin-4-yl]acetamide] is higher in IC50: < 5 nM for the first, 5 to 50 nM for the second.

First: CCc1c(N2CCN(C(=O)c3cccc4cn[nH]c34)CC2)c(=O)n2nc(C3=CCOCC3)nc2n1CC(=O)Nc1ccc(C(F)(F)F)cc1Cl [Compound I-14, N-[2-chloro-4-(trifluoromethyl)phenyl]-2-[2-(3,6-dihydro-2H-pyran-4-yl)-5-ethyl-6-[4-(1H-indazole-7-carbonyl)piperazin-1-yl]-7-oxo-4H,7H-[1,2,4]triazolo[1,5-a]pyrimidin-4-yl]acetamide]
Second: CCc1c(N2CCN(C(=O)c3ccnc4cccnc34)CC2)c(=O)n2nc(C3=CCOCC3)nc2n1CC(=O)Nc1ccc(C(F)(F)F)cc1Cl [Compound I-37, N-[2-chloro-4-(trifluoromethyl)phenyl]-2-[2-(3,6-dihydro-2H-pyran-4-yl)-5-ethyl-6-[4-(1,5-naphthyridine-4-carbonyl)piperazin-1-yl]-7-oxo-4H,7H-[1,2,4]triazolo[1,5-a]pyrimidin-4-yl]acetamide]
The IC50 of the first is lower: < 5 nM for the first, 5 to 50 nM for the second. The first is the more potent here.

CCc1c(N2CCN(C(=O)c3ncnn3C)CC2)c(=O)n2nc(-c3ccnc(OC)c3)nc2n1CC(=O)Nc1ccc(C(F)(F)F)cc1Cl [Compound I-79, N-[2-chloro-4-(trifluoromethyl)phenyl]-2-[5-ethyl-2-(2-methoxypyridin-4-yl)-6-[4-(1-methyl-1H-1,2,4-triazole-5-carbonyl)piperazin-1-yl]-7-oxo-4H,7H-[1,2,4]triazolo[1,5-a]pyrimidin-4-yl]acetamide] and CCc1c(N2CCN(C(=O)c3ncnc(C)c3O)CC2)c(=O)n2nc(-c3cnn(C4CC4)c3)nc2n1CC(=O)Nc1ccc(C(F)(F)F)cc1Cl [Compound I-32, N-[2-chloro-4-(trifluoromethyl)phenyl]-2-[2-(1-cyclopropyl-1H-pyrazol-4-yl)-5-ethyl-6-[4-(5-hydroxy-6-methylpyrimidine-4-carbonyl)piperazin-1-yl]-7-oxo-4H,7H-[1,2,4]triazolo[1,5-a]pyrimidin-4-yl]acetamide] fall in the same range of IC50: 5 to 50 nM for the first, 5 to 50 nM for the second.
